This test addresses T1, human Keap1 kelch domain (amino acids Ala321-Thr609) (Homo sapiens, UniProt Q14145).
T1 construct: human Keap1 kelch domain (amino acids Ala321-Thr609)
Put plainly: Keap1-Nrf2 peptide binding assay (fluorescence polarisation). To be noted: binding of Keap1 kelch domain (20 nM) to fluorescently labeled Nrf2 peptide (50 nM). On the procedure: A fluorescence polarisation assay was used to measure binding of the human Keap1 kelch domain (amino acids Ala321-Thr609) to a fluorescently labeled peptide containing a Keap1 binding site of human Nrf2 (Alexa633-AFFAQLQLDEETGEFL; JPT Technologies, Berlin, Germany). Two microliters of test compound in reaction buffer (phosphate-buffered saline, 2 mM DL-dithiothreitol, 0.015 % (v/v) Brij-35) containing 6 % (v/v) DMSO were mixed with two microliters of the Keap1 kelch domain in reaction buffer in a black 384-well small volume microtiter plate and incubated at ambient temperature for 15 minutes. Thereafter, two microliters were added of the fluorescently labeled Nrf2 peptide in reaction buffer, and the mixture was incubated for a further 30 minutes at ambient temperature. Final concentrations of the Keap1 kelch domain and the fluorescently labeled Nrf2 peptide were 20 nM and 50 nM, respectively.
Fluorescence polarization (FP) was measured at excitation and emission wavelengths of 635 nm and 660 nm, respectively. Positive controls for binding (two microliters of reaction buffer containing 6 % (v/v) DMSO instead of test compound in the same buffer) and negative controls (as positive controls, but without Keap1 kelch domain) were included on each microtiter plate. Data were expressed as percent-inhibition values: percentinhibition = 100⋅(1-(|FPcompound-FPnegative controle|)/(|FPpositive controle-FPnegative controle|)) [formula]
IC50 values were determined by testing different compound concentrations and fitting the resulting percent-inhibition values to the following equation using XLFit4: percentinhibition = A + (B-A)/(1 + (((IC50)/([Compound])))^D) [formula]
Parameter A was set to zero, pre-fit values for parameters B and D were set to 100 and 1, respectively.

Like-named read-outs stand apart in the source and are kept apart here.

T1 sequence (Q14145 321-609): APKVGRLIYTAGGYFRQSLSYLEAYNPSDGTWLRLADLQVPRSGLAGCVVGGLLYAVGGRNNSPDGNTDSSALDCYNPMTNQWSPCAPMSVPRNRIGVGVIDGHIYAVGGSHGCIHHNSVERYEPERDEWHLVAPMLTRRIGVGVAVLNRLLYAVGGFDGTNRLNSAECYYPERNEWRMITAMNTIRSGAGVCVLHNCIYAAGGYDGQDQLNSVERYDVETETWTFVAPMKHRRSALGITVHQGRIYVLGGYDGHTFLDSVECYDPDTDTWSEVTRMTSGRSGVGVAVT

For the molecule `Cc1cc(NC(=O)N2CCOCC2)ccc1S(=O)(=O)Nc1ccc(-c2cccc(C(=O)O)c2)c2ccccc12` [Example 45, 3-[4-[[2-methyl-4-(morpholine-4-carbonylamino)phenyl]sulfonylamino]-1-naphthyl]benzoic acid], the half-maximal inhibitory concentration (IC50) (read-out: IC50) amounted to 2.5 µM.

On to `Cc1c(S(=O)(=O)Nc2ccc(-c3cccc(C(=O)O)c3)c3ccccc23)cnn1C1CCCC1` [Example 67, 3-[4-[(1-cyclopentyl-5-methyl-pyrazol-4-yl)sulfonylamino]-1-naphthyl]benzoic acid], for which, for the setting “read-out: IC50”, the IC50 was 1.8 µM.

As for `Cc1nc(-c2ccc(C(F)(F)F)cc2)sc1S(=O)(=O)Nc1ccc(-c2cccc(C(=O)O)c2F)c2ccccc12` [Example 8, 2-fluoro-3-[4-[[4-methyl-2-[4-(trifluoromethyl)phenyl]thiazol-5-yl]sulfonylamino]-1-naphthyl]benzoic acid], the IC50 (read-out: IC50) was 5.2 µM. In turn, `O=C(O)c1cccc(-c2ccc(NS(=O)(=O)c3cc(Cl)ccc3Cl)c3ccccc23)c1` [Example 54, 3-[4-[(2,5-dichlorophenyl)sulfonylamino]-1-naphthyl]benzoic acid] registered an IC50 of 3.7 µM. For the molecule `COc1cc(C)ccc1S(=O)(=O)Nc1ccc(-c2cccc(C(=O)O)c2)c2ccccc12` [Example 18, 3-[4-[(2-methoxy-4-methylphenyl)sulfonylamino]-1-naphthyl]benzoic acid], the IC50 (read-out: IC50) was found to be 5.8 µM. Same read-out and setting: the value for `Cc1c(S(=O)(=O)Nc2ccc(-c3cc(C(=O)O)ccc3F)c3ncccc23)c2ccccc2n1C` [Example 96, 3-[5-[(1,2-dimethylindol-3-yl)sulfonylamino]-8-quinolyl]-4-fluoro-benzoic acid] was 0.9 µM; that for `CCCn1ncc(S(=O)(=O)Nc2ccc(-c3cccc(C(=O)O)c3)c3ccccc23)c1C` [Example 63, 3-[4-[(5-methyl-1-propyl-pyrazol-4-yl)sulfonylamino]-1-naphthyl]benzoic acid] was 3.2 µM. In the case of `O=C(O)c1cccc(-c2ccc(NS(=O)(=O)c3cc(Cl)cc(Cl)c3)c3ccccc23)c1` [Example 48, 3-[4-[(3,5-dichlorophenyl)sulfonylamino]-1-naphthyl]benzoic acid], the concentration for half-maximal inhibition (IC50) came to 2.3 µM. On to `CCCCn1cc(S(=O)(=O)Nc2ccc(-c3cccc(C(=O)O)c3)c3nc(C)ccc23)c(C)n1` [Example 71, 3-[5-[(1-butyl-3-methyl-pyrazol-4-yl)sulfonylamino]-2-methyl-8-quinolyl]benzoic acid], for which the IC50 (read-out: IC50) came to 22 µM. `Cc1nn(C)c(C)c1S(=O)(=O)Nc1ccc(-c2cccc(C(=O)O)c2)c2ccccc12` [Example 22, 3-[4-[(1,3,5-trimethylpyrazol-4-yl)sulfonylamino]-1-naphthyl]benzoic acid]: the IC50 (read-out: IC50) stood at 0.8 µM. Same read-out and setting: with `CC(=O)N1CCCc2cc(S(=O)(=O)Nc3ccc(-c4cccc(C(=O)O)c4)c4ccccc34)ccc21` [Example 30, 3-[4-[(1-acetyl-3,4-dihydro-2H-quinolin-6-yl)sulfonylamino]-1-naphthyl]benzoic acid] the figure was 4.3 µM; with `Cc1nn(-c2ccccc2)c(C)c1S(=O)(=O)Nc1ccc(-c2cccc(C(=O)O)c2)c2ccccc12` [Example 50, 3-[4-[(3,5-dimethyl-1-phenyl-pyrazol-4-yl)sulfonylamino]-1-naphthyl]benzoic acid], 1.6 µM. In turn, `O=C(O)c1cccc(-c2ccc(NS(=O)(=O)c3ccc(F)cc3Cl)c3ccccc23)c1` [Example 35, 3-[4-[(2-chloro-4-fluorophenyl)sulfonylamino]-1-naphthyl]benzoic acid] returned an IC50 of 5.6 µM. On to `COc1ccc(S(=O)(=O)Nc2ccc(-c3cccc(C(=O)O)c3)c3ccccc23)c(OC)c1` [Example 2, 3-[4-[(2,4-dimethoxyphenyl)sulfonylamino]-1-naphthyl]benzoic acid], for which the concentration for half-maximal inhibition (IC50) (read-out: IC50) stood at 4.5 µM.

In the case of `O=C(O)c1cccc(-c2ccc(NS(=O)(=O)c3cc(Cl)sc3Cl)c3ccccc23)c1` [Example 49, 3-[4-[(2,5-dichloro-3-thienyl)sulfonylamino]-1-naphthyl]benzoic acid], the IC50 amounted to 1.7 µM.

Source of the values: patent publication EP2998294A1, “Naphthyl sulfonamide phenyl derivatives as KEAP-1 modulators for the treatment of diabetes, obesity, dyslipidemia and related disorders” (SANOFI, priority 2014, dated 2016).
